Patent US11040976B2, “Substrate selective inhibitors of insulin-degrading enzyme (IDE) and uses thereof” (President and Fellows of Harvard College, priority 2015, dated 2021)

Columns and labels:
[1] = biological target: T1, recombinant human IDE42-1019 (Homo sapiens, UniProt P14735); assay: Protease assay with fluorogenic peptide substrate Mca-[…](Dnp)-OH; format: biochemical; details: fluorogenic peptide Mca-RPPGFSAFK(Dnp)-OH; for IC50: apparent IC50 for compounds with submaximal inhibition, read-out: IC50 (μM) Proteolysis; for Emax: plateau at high inhibitor concentration, read-out: Imax (%) Proteolysis (inhibition maximum)
T1 construct: recombinant human IDE42-1019 (R&D Systems); purchased R&D Systems
T1 sequence (P14735 42-1019): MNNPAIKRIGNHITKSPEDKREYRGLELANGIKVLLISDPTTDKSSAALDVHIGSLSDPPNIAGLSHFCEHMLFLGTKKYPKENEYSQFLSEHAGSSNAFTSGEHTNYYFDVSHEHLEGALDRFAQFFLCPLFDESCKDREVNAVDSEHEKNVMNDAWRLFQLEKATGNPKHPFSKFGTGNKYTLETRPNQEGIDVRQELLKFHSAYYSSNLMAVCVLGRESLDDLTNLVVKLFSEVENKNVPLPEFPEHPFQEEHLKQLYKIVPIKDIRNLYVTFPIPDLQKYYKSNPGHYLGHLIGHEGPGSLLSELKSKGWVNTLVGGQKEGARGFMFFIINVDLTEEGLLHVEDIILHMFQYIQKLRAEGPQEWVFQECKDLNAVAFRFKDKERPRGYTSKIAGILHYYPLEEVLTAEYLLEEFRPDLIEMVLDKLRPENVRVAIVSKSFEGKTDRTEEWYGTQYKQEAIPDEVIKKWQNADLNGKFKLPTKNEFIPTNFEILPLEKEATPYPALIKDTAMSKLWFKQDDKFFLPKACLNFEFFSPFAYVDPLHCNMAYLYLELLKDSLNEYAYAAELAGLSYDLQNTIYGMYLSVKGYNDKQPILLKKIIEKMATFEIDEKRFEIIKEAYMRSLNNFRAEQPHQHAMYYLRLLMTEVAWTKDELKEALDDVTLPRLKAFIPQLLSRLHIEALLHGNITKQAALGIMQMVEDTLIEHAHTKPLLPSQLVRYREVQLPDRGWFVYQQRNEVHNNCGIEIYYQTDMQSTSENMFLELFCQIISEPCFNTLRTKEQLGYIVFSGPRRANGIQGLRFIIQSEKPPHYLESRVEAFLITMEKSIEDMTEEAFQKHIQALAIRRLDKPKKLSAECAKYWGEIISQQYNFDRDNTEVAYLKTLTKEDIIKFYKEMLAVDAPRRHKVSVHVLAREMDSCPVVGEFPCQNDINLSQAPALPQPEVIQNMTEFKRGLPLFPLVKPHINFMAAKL

[2] = biological target: T2, IDE, substrate glucagon (Homo sapiens, UniProt P14735); assay: MALDI analysis of glucagon cleavage products (FIGS. 27-32); format: biochemical; details: FIG. 27A
T2 sequence (P14735 1-1019): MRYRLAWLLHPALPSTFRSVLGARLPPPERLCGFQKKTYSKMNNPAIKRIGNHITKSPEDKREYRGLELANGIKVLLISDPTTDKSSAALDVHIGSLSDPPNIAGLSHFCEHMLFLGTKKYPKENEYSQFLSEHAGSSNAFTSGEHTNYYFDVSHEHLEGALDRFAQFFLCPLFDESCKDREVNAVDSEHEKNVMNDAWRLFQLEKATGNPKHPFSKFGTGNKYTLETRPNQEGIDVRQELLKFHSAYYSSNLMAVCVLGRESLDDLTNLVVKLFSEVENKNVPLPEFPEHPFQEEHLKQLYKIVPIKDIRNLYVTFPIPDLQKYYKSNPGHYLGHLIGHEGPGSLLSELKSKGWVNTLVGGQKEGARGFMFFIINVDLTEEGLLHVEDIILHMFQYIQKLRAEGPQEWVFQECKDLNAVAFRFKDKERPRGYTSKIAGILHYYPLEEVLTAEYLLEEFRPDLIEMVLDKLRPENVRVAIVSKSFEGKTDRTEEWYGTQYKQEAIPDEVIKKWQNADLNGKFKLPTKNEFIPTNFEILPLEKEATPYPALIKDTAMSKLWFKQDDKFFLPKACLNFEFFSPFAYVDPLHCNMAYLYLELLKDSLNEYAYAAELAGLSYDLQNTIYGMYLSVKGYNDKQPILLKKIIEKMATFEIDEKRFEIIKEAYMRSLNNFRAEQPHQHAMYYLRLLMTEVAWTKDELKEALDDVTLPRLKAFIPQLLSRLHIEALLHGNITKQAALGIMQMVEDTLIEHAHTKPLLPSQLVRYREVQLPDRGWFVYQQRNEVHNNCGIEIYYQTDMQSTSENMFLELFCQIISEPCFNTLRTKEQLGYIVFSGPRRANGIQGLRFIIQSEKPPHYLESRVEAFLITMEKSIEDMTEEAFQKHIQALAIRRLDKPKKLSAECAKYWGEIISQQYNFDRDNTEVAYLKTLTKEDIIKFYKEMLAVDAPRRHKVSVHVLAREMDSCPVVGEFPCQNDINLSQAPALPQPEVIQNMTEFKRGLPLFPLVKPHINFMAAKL

[3] = biological target: T3, IDE (R&D), substrate glucagon (Homo sapiens, UniProt P14735); assay: HTRF assay for IDE-mediated degradation of glucagon; format: biochemical; details: compounds 67 μM, 0° C. for 10 minutes, versus DMSO alone, FIG. 5
T3 construct: recombinant human IDE42-1019 (R&D Systems); purchased R&D
T3 sequence (P14735 42-1019): T1 sequence (P14735 42-1019)
Experimental: A solution of 0.05 μg/mL IDE (R&D) in “Diluent #5” (CisBio, 24 μL) was transferred to a 200 μL tube strip, and combined with 1 μL of each inhibitor (10 mM in DMSO, or as a 3-fold dilution series). […] This procedure was optimized to result in ˜75% degradation of glucagon. The reaction was terminated by 1 μL of inhibitor Ii1 (5 μM) and chilled on ice. The remaining glucagon was quantified using 10 μL of the quenched enzymatic reaction using the sensitive-range protocol Homogeneous Time-Resolved FRET Glucagon assay (CisBio® 62GLCPEF, see FIG. 3) in 20 μL total volume according to the manufacturer's instructions (384 well-plate Greiner 784904 non-binding). Fluorescence was measured using a Tecan M1000Pro plate reader (excitation=340 nm, emission=665 and 620 nm, lag time=60 μs) according the assay manufacturer's recommendations. Blank wells and glucagon standard curve were included in the assay.
FIG. 4 compares the determined endpoint for insulin degradation with of glucagon degradation for a DMSO control, 6bK at 10 μM, and exemplary compounds of the invention at concentrations of 67 μM.
The HTRF endpoint assay for insulin and glucagon was performed over a range of concentrations for several potential inhibitors and for 6bK.

[4] = biological target: T4, Human N-His6-IDE42-1019 (E. coli expressed) (Homo sapiens, UniProt P14735); assay: Fluorescence anisotropy high-throughput screening assay (displacement of probe FL-6b); format: binding
T4 construct: Human N-His6-IDE42-1019 (E. coli expressed); made in house; host or cells: E. coli (Rosetta 2 (DE3) pLysS, plasmid pTrcHis-A)
T4 sequence (P14735 42-1019): T1 sequence (P14735 42-1019)
How it was run: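 Compounds at 20 μM final were added to 0.5 μM enzyme with fluorescein-labelled macrocycle probe ([…]) in 50 mM Tris pH 8.0, 1 M NaCl, 25 °C. Anisotropy (ex 492/em 523 nm) was read after 30 min in duplicate. Z-scores were calculated against plate DMSO controls.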

[5] = final compound concentration 20 μM (6bK control 1 μM), values without asterisk

| SMILES | IC50 [1] | main glucagon cleavage site [2] | initial rates of glucagon cleavage [3] | Average Z-score (Fluorescence anisotropy) [4, 5] | Emax [1] | Average Z-score (Fluorescence anisotropy) ([4]; values marked *: from the screen using the diversity-oriented synthesis (DOS) informer set of plates, 20 μM) |
| --- | --- | --- | --- | --- | --- | --- |
| Cc1cccc(-c2ccc([C@@H]3[C@@H](CO)N4CCCCN(S(=O)(=O)c5ccccc5C(F)(F)F)C[C@@H]34)cc2)c1C [JP-17] | 0.001 µM | no change in the main glucagon cleavage site | – | – | – | – |
| Cc1cccc(-c2ccc([C@H]3C4CN(S(=O)(=O)c5ccccc5C(F)(F)F)CCCCN4[C@@H]3CF)cc2)c1C (some centres unmarked) [JP-18] | – | no change in the main glucagon cleavage site | – | – | – | – |
| Cc1ccccc1-c1ccc([C@H]2[C@H](CO)N3C(=O)CN(C(=O)NC4CCCC4)C[C@@H]23)cc1 [compound 504] | 0.8 µM | – | enhanced | −20.82 | – | – |
| Cc1ccccc1-c1ccc([C@@H]2[C@@H](CO)N3CCCCN(S(C)(=O)=O)C[C@@H]23)cc1 [compound 591] | 1.5 µM | – | enhanced | −17.90 | 40% | – |
| CCCNC(=O)N1CC(=O)N2[C@H](CO)[C@@H](c3ccc(-c4cccc(C)c4)cc3)[C@@H]2C1 [compound 779] | 0.8 µM | – | reduced | −22.36 | 60% | – |
| COc1ccccc1-c1ccc([C@H]2[C@@H](CO)N3CCCCN(C(=O)c4cccnc4)C[C@H]23)cc1 [compound 983] | > 20 µM | – | – | – | 90% | −12.81* |
| Cc1ccccc1-c1ccc([C@H]2[C@@H](CO)N3CCCCN(C(=O)Nc4ccccc4)C[C@@H]23)cc1 [compound 1570] | 7 µM | – | – | −1.37 | 40% | – |
| Cc1ccccc1-c1ccc([C@H]2[C@@H](CO)N3C(=O)CN(C(=O)c4cccnc4)C[C@H]23)cc1 [compound 3421] | 2 µM | – | – | −17.16 | 60% | – |
